EC50 and IC50 data for eleven compounds are collected here from patent publication US20210315869A1, “COMPOUNDS AND METHODS FOR CSK MODULATION AND INDICATIONS THEREFOR” (Plexxikon Inc., priority 2020, published 2021).

The test system of one test is Jurkat/NFAT-RE cells. The test is described as follows: NFAT reporter assay (luciferase) in Jurkat/NFAT-RE cells. In kind it is cell-based. Conditions: Homo sapiens, 0.02 μg/mL anti-CD3 antibody OKT3, 3 hours, read-out: Jurkat EC50 (uM) Cell Assay: Reporter Cell Variant: NFAT response element. The text has this:
To assess the ability of CSK inhibitors to activate LCK and stimulate signaling downstream of the T-cell receptor, an NFAT reporter assay was used for monitoring of LCK activation in cells through the activation of LCK-dependent signaling through a reporter assay. The Jurkat T-cell cell line was genetically engineered to express a luciferase reporter that is regulated by the NFAT-response element. (Clipstone, N. A., & Crabtree, G. R., Identification of calcineurin as a key signalling enzyme in T-lymphocyte activation, Nature, 357(6380), 695-697, 1992). Stimulation of the T-cell receptor with anti-CD3 antibody increases the expression of the luciferase reporter. To test the ability of CSK inhibitors to stimulate LCK and downstream T-cell signaling, the cells were stimulated with a suboptimal concentration of anti-CD3 ligand, to measure the ability of CSK inhibitors to increase luciferase expression.
This assay measures the signaling activity downstream of the T-cell receptor, specifically the ability of the NFAT transcription factor to be translocated to the nucleus and induce expression of a firefly luciferase gene. Jurkat/NFAT-RE cells stably expressing the NFAT reporter construct were purchased from BPS Bioscience. The assay was performed by plating 40,000 Jurkat/NFAT-RE cells in a 50 μL volume of serum-free growth media in a 96-well plate. Following an overnight incubation, the cells were treated with CSK inhibitors and 0.02 μg/mL anti-CD3 antibody OKT3 (BD Bioscience) for 3 hours at 37° C. High control wells were stimulated with DMSO and 5 μg/mL OKT3 to maximally stimulate the NFAT reporter, and low control wells were stimulated with DMSO and 0.02 μg/mL OKT3. Following the 3 hour incubation, the cells were assayed for viability using CellTiter-Fluor™ (Promega), and for luciferase expression using ONE-Glo™ (Promega). The ONE-Glo™ signal was normalized to the CellTiter-Fluor™ signal, and the percentage of NFAT activation relative to high and low controls was calculated. The data were analyzed by using nonlinear regression to generate EC50 values. Selective CSK inhibitors affect an increase in luciferase expression in the presence of low level stimulation of the T-cell receptor.

Another test addresses T1, CSK (Homo sapiens, UniProt P41240).
T1 construct: purchased Thermo Fisher
Nature of the test: Human CSK enzymatic assay (AlphaScreen, Poly (Glu4-Tyr) substrate). It counts as biochemical. The note with it: 100 uM ATP; read-out: CSK IC50 (μM) COFACTOR: 100 uM ATP. The method, then: This assay measures the ability of CSK to phosphorylate a biotinylated peptide containing multiple tyrosine residues in vitro. The CSK enzyme was purchased from Thermo Fisher. The biotinylated Poly (Glu4-Tyr) peptide substrate was purchased from Sigma-Aldrich. The CSK enzyme assay was performed using 0.75 ng CSK enzyme and 30 nM Poly (Glu4-Tyr) substrate in the presence of 25 mM Hepes pH 7.5, 5 mM Mg Acetate, 0.1% NP-40, 1 mM DTT, 0.01% BSA, and 100 μM ATP. A 19 μL volume of the above reaction mixture was added to wells of 384-well AlphaPlate (PerkinElmer GA, USA) containing 1 μL of various concentrations of test compound or DMSO vehicle and incubated for 60 minutes at room temperature. 16 wells containing all the components of reaction mixture and 5% DMSO serve as high control. 16 wells containing all the components except ATP of reaction mixture and 5% DMSO served as low control. The enzymatic reaction was stopped by the addition of 5 μL stop/detection mixture containing 25 mM Hepes pH 7.5 100 mM EDTA, and 5 μg/mL streptavidin-coated AlphaScreen donor beads (PerkinElmer GA, USA) and incubated for 20 minutes. A 5 μL mixture containing 25 mM Hepes pH 7.5, 100 mM EDTA, and 5 μg/mL anti-phosphotyrosine antibody PY20-coated AlphaScreen acceptor beads (PerkinElmer GA, USA) was added and the plate was incubated for 1 hour at room temperature. The streptavidin donor beads bind to the biotin moiety on the biotinylated Poly (Glu4-Tyr) substrate and the PY20 antibody-coated acceptor beads bind to tyrosine residues on the substrate that have been directly phosphorylated by CSK. Upon excitation of these beads with laser light at 680 nm, singlet oxygen was produced. This singlet oxygen was rapidly quenched, unless the AlphaScreen PY20 acceptor beads are in close proximity, in which case a proximity signal can be measured at 580 nm. In the presence of catalytic activity, there was a very strong proximity signal. Selective CSK inhibitors affect a decrease in this proximity signal through a decrease in phosphorylation of the Poly (Glu4-Tyr) substrate. The percentage of inhibition at individual concentrations relative to high and low controls was calculated. The data were analyzed by using nonlinear regression to generate IC50 values. Human LCK enzymatic assay
Background: Alpha assays give light when donor and acceptor beads are brought close together.

The target in the next test is T2, LCK (Homo sapiens, UniProt P06239).
T2 construct: purchased ProQinase
The test is described as follows: Human LCK enzymatic assay (AlphaScreen, Poly (Glu4-Tyr) substrate). It counts as biochemical. The note with it: 100 uM ATP; read-out: LCK IC50 (uM) COFACTOR: 100 uM ATP. The method, then: This assay measures the ability of LCK to phosphorylate a biotinylated peptide containing multiple tyrosine residues in vitro. The LCK enzyme was purchased from ProQinase. The biotinylated Poly (Glu4-Tyr) peptide substrate was purchased from Sigma-Aldrich. The LCK enzyme assay was performed using 1 ng LCK enzyme and 30 nM Poly (Glu4-Tyr) substrate in the presence of 25 mM Hepes pH 7.5, 10 mM MnCl2, 50 mM NaCl, 0.01% Tween-20, 0.5 mM DTT, 0.01% BSA, and 100 μM ATP. A 19 μL volume of the above reaction mixture was added to wells of 384-well AlphaPlate (PerkinElmer GA, USA) containing 1 μL of various concentrations of test compound or DMSO vehicle and incubated for 40 minutes at 25° C. 16 wells containing all the components of reaction mixture and 5% DMSO served as high control. 16 wells containing all the components except ATP of reaction mixture and 5% DMSO served as low control. The enzymatic reaction was stopped by the addition of 5 μL stop/detection mixture containing 25 mM Hepes pH 7.5 100 mM EDTA, and 10 μg/mL streptavidin-coated AlphaScreen donor beads (PerkinElmer GA, USA) and incubated for 20 minutes. A 5 μL mixture containing 25 mM Hepes pH 7.5, 100 mM EDTA, and 10 μg/mL anti-phosphotyrosine antibody PY20-coated AlphaScreen acceptor beads (PerkinElmer GA, USA) was added and the plate was incubated for 1 hour at room temperature. The streptavidin donor beads bind to the biotin moiety on the biotinylated Poly (Glu4-Tyr) substrate and the PY20 antibody-coated acceptor beads bind to tyrosine residues on the substrate that have been directly phosphorylated by LCK. Upon excitation of these beads with laser light at 680 nm, singlet oxygen was produced. This singlet oxygen was rapidly quenched, unless the AlphaScreen PY20 acceptor beads are in close proximity, in which case a proximity signal can be measured at 580 nm. In the presence of catalytic activity, there was a very strong proximity signal. Selective LCK inhibitors affect a decrease in this proximity signal through a decrease in phosphorylation of the Poly (Glu4-Tyr) substrate. The percentage of inhibition at individual concentrations relative to high and low controls was calculated. The data were analyzed by using nonlinear regression to generate IC50 values.

T1 sequence (P41240 whole entry): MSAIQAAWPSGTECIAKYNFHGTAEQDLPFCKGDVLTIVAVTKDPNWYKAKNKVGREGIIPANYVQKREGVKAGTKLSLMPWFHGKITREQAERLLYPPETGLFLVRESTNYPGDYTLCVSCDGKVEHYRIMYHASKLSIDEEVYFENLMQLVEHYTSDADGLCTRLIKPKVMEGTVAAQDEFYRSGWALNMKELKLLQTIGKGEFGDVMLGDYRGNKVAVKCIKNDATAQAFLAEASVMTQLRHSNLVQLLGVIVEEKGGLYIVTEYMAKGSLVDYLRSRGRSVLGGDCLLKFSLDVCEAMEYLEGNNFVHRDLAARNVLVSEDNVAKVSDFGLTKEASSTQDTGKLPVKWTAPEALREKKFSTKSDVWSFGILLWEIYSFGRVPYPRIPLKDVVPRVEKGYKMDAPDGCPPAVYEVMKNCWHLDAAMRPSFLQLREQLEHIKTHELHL
T2 sequence (P06239 whole entry): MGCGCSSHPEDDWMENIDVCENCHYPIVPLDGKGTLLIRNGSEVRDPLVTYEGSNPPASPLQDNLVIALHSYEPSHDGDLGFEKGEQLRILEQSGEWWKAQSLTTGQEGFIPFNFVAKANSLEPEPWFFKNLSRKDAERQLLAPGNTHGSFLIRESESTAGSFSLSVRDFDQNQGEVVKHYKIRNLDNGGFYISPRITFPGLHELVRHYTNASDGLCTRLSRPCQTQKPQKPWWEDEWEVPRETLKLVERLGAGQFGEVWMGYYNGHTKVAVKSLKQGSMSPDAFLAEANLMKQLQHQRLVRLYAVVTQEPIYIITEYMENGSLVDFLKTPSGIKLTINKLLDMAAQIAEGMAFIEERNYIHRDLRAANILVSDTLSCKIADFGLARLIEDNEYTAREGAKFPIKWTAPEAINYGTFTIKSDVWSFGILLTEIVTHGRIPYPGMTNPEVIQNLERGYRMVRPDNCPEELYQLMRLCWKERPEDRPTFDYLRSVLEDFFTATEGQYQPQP

For `CC1(n2c(=O)c(-c3c(F)ccc(NS(=O)(=O)c4cc5scnc5cc4F)c3F)cc3cnc(N)cc32)CC1` [P-0006, N-(3-(7-amino-1-(1-methylcyclopropyl)-2-oxo-1,2-dihydro-1,6-naphthyridin-3-yl)-2,4-difluorophenyl)-5-fluorobenzo[d]thiazole-6-sulfonamide], the EC50 with Jurkat/NFAT-RE cells lay within 0.5 to 5 µM. For the same compound, the values for the IC50 on CSK and on LCK were 0.001 to 0.5 µM and 5 to 100 µM, respectively.
Consider `Nc1cc2c(cn1)cc(-c1c(F)ccc(NS(=O)(=O)c3cc4scnc4cc3F)c1F)c(=O)n2C1CC(F)(F)C1` [P-0009, N-(3-(7-amino-1-(3,3-difluorocyclobutyl)-2-oxo-1,2-dihydro-1,6-naphthyridin-3-yl)-2,4-difluorophenyl)-5-fluorobenzo[d]thiazole-6-sulfonamide], for which, in the test with Jurkat/NFAT-RE cells, the EC50 was in the range of 0.5 to 5 µM. The IC50 on CSK lay in the range of 0.001 to 0.5 µM; on LCK, 5 to 100 µM.
On the same counts, the results for `Nc1cc2c(cn1)cc(-c1c(F)ccc(NS(=O)(=O)c3cc4scnc4cc3F)c1F)c(=O)n2C1CC1` [P-0008, N-(3-(7-amino-1-cyclopropyl-2-oxo-1,2-dihydro-1,6-naphthyridin-3-yl)-2,4-difluorophenyl)-5-fluorobenzo[d]thiazole-6-sulfonamide] are 0.001 to 0.5 µM, 0.001 to 0.5 µM and 5 to 100 µM.
For `O=c1c(-c2c(F)ccc(NS(=O)(=O)c3cc4scnc4cc3F)c2F)cc2cnc(Nc3ccn(C(F)F)n3)cc2n1C1CC(F)(F)C1` [P-0013, N-(3-(1-(3,3-difluorocyclobutyl)-7-((1-(difluoromethyl)-1H-pyrazol-3-yl)amino)-2-oxo-1,2-dihydro-1,6-naphthyridin-3-yl)-2,4-difluorophenyl)-5-fluorobenzo[d]thiazole-6-sulfonamide] the same measures were 0.001 to 0.5 µM, 0.001 to 0.5 µM and 0.5 to 5 µM.
In the case of `O=c1c(-c2c(F)ccc(NS(=O)(=O)c3cc4scnc4cc3F)c2F)cc2cnc(NCCO)cc2n1C1CC1` [P-0014, N-(3-(1-cyclopropyl-7-((2-hydroxyethyl)amino)-2-oxo-1,2-dihydro-1,6-naphthyridin-3-yl)-2,4-difluorophenyl)-5-fluorobenzo[d]thiazole-6-sulfonamide], the EC50 with Jurkat/NFAT-RE cells was in the range of 0.5 to 5 µM. The IC50 was in the range of 0.001 to 0.5 µM on CSK and 5 to 100 µM on LCK.
On the same counts, the results for `Nc1cc2c(cn1)cc(-c1c(F)ccc(NS(=O)(=O)c3cc4scnc4cc3F)c1F)c(=O)n2C1CCC1` [P-0024, N-(3-(7-amino-1-cyclobutyl-2-oxo-1,2-dihydro-1,6-naphthyridin-3-yl)-2,4-difluorophenyl)-5-fluorobenzo[d]thiazole-6-sulfonamide] are 0.001 to 0.5 µM, 0.001 to 0.5 µM and 5 to 100 µM.
For `CNc1cc2c(cn1)cc(-c1c(F)ccc(NS(=O)(=O)c3cc4scnc4cc3F)c1F)c(=O)n2CC1CC1` [P-0005, N-(3-(1-(cyclopropylmethyl)-7-(methylamino)-2-oxo-1,2-dihydro-1,6-naphthyridin-3-yl)-2,4-difluorophenyl)-5-fluorobenzo[d]thiazole-6-sulfonamide], the EC50 in the test with Jurkat/NFAT-RE cells is 0.001 to 0.5 µM. Besides, the IC50 on CSK is 0.001 to 0.5 µM; on LCK, 5 to 100 µM.
For the compound `CC(F)(F)Cn1c(=O)c(-c2c(F)ccc(NS(=O)(=O)c3cc4scnc4cc3F)c2F)cc2cnc(N)cc21` [P-0016, N-(3-(7-amino-1-(2,2-difluoropropyl)-2-oxo-1,2-dihydro-1,6-naphthyridin-3-yl)-2,4-difluorophenyl)-5-fluorobenzo[d]thiazole-6-sulfonamide], the EC50 in the test with Jurkat/NFAT-RE cells fell in the range of 0.001 to 0.5 µM. For the same compound, the IC50 fell in the range of 0.001 to 0.5 µM at CSK and 5 to 100 µM at LCK.
As for `O=c1c(-c2c(F)ccc(NS(=O)(=O)c3cc4scnc4cc3F)c2F)cc2cnc(NCCO)cc2n1C1CC(F)(F)C1` [P-0015, N-(3-(1-(3,3-difluorocyclobutyl)-7-((2-hydroxyethyl)amino)-2-oxo-1,2-dihydro-1,6-naphthyridin-3-yl)-2,4-difluorophenyl)-5-fluorobenzo[d]thiazole-6-sulfonamide], the EC50 in the test with Jurkat/NFAT-RE cells lay in the range of 0.5 to 5 µM. The IC50 at CSK is 0.5 to 5 µM; on LCK, 5 to 100 µM.
Take `Nc1cc2c(cn1)cc(-c1c(F)ccc(NS(=O)(=O)c3cc4scnc4cc3F)c1F)c(=O)n2CC(F)(F)F` [P-0021, N-(3-(7-amino-2-oxo-1-(2,2,2-trifluoroethyl)-1,2-dihydro-1,6-naphthyridin-3-yl)-2,4-difluorophenyl)-5-fluorobenzo[d]thiazole-6-sulfonamide]: the EC50 in the test on Jurkat/NFAT-RE cells lay in the range of 0.001 to 0.5 µM. In addition, the figures for the IC50 at CSK and at LCK were 0.001 to 0.5 µM and 0.5 to 5 µM, respectively.
With `O=c1c(-c2c(F)ccc(NS(=O)(=O)c3cc4scnc4cc3F)c2F)cc2cnc(Nc3ccn(C(F)F)n3)cc2n1C1CC1` [P-0012, N-(3-(1-cyclopropyl-7-((1-(difluoromethyl)-1H-pyrazol-3-yl)amino)-2-oxo-1,2-dihydro-1,6-naphthyndin-3-yl)-2,4-difluorophenyl)-5-fluorobenzo[d]thiazole-6-sulfonamide], the EC50 in the test with Jurkat/NFAT-RE cells was in the range of 0.001 to 0.5 µM. The IC50 was 0.001 to 0.5 µM on CSK and 0.5 to 5 µM on LCK.

As a reminder, the EC50 is the concentration at which the effect is half-maximal. As usually defined, the IC50 is the midpoint of a concentration-inhibition curve.
